Reference: ChEMBL document CHEMBL4825718, “Novel Dihydrooxadiazinones as PDE3 Inhibitors for Treating Cancer” (ACS Med Chem Lett, 2021)

Assays:
SK-MEL3 = test: Antiproliferative activity against human SK-MEL3 cells assessed as cell growth inhibition after 72 hrs by Cell titer glo assay; type: functional, cell-based; details: SK-MEL3, 72 h
[1] = target: cGMP-inhibited 3',5'-cyclic phosphodiesterase 3A (Homo sapiens, UniProt Q14432); test: Inhibition of human full length PDE3A expressed in Sf9 cells measured after 60 mins by [3H]-cAMP Scintillation proximity assay
HeLa = test: Antiproliferative activity against human HeLa cells assessed as cell growth inhibition after 72 hrs by Cell titer glo assay; type: functional, cell-based
[2] = target: cGMP-inhibited 3',5'-cyclic phosphodiesterase 3B (Homo sapiens, UniProt Q13370); test: Inhibition of human full length PDE3B expressed in Sf9 cells measured after 60 mins by [3H]-cAMP Scintillation proximity assay
IGR-37 cell line = test: Antiproliferative activity against human IGR37 cells assessed as cell growth inhibition after 72 hrs by Cell titer glo assay; type: functional, cell-based; details: IGR-37, 72 h

Sequence of cGMP-inhibited 3',5'-cyclic phosphodiesterase 3A (Q14432 whole entry): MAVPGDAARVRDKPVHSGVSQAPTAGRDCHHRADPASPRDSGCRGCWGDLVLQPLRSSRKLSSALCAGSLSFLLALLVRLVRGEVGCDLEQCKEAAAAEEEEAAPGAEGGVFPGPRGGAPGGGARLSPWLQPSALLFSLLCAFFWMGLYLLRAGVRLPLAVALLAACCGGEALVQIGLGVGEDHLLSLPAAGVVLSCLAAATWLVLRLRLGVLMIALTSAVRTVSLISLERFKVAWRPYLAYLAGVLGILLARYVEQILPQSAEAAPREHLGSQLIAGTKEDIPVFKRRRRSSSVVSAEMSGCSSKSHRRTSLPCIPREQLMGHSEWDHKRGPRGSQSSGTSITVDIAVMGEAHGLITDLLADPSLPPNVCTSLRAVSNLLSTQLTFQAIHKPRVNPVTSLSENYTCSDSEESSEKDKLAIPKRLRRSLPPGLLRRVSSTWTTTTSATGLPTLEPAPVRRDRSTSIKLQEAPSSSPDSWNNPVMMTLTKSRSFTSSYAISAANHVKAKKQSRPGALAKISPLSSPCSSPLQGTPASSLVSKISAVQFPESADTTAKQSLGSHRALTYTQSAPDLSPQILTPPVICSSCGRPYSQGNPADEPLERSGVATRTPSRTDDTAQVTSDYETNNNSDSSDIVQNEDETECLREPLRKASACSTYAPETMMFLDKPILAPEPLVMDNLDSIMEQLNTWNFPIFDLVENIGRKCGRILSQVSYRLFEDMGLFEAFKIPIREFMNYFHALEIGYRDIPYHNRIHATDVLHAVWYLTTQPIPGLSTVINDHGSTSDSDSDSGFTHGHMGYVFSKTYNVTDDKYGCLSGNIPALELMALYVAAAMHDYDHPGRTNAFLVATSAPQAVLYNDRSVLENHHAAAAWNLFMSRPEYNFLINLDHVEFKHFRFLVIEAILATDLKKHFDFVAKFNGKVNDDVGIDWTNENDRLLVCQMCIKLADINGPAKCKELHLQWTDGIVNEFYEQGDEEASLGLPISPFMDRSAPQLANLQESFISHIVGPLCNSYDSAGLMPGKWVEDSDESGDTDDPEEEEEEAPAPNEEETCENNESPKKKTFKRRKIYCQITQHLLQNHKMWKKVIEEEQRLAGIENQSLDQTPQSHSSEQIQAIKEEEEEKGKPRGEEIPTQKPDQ
Sequence of cGMP-inhibited 3',5'-cyclic phosphodiesterase 3B (Q13370 whole entry): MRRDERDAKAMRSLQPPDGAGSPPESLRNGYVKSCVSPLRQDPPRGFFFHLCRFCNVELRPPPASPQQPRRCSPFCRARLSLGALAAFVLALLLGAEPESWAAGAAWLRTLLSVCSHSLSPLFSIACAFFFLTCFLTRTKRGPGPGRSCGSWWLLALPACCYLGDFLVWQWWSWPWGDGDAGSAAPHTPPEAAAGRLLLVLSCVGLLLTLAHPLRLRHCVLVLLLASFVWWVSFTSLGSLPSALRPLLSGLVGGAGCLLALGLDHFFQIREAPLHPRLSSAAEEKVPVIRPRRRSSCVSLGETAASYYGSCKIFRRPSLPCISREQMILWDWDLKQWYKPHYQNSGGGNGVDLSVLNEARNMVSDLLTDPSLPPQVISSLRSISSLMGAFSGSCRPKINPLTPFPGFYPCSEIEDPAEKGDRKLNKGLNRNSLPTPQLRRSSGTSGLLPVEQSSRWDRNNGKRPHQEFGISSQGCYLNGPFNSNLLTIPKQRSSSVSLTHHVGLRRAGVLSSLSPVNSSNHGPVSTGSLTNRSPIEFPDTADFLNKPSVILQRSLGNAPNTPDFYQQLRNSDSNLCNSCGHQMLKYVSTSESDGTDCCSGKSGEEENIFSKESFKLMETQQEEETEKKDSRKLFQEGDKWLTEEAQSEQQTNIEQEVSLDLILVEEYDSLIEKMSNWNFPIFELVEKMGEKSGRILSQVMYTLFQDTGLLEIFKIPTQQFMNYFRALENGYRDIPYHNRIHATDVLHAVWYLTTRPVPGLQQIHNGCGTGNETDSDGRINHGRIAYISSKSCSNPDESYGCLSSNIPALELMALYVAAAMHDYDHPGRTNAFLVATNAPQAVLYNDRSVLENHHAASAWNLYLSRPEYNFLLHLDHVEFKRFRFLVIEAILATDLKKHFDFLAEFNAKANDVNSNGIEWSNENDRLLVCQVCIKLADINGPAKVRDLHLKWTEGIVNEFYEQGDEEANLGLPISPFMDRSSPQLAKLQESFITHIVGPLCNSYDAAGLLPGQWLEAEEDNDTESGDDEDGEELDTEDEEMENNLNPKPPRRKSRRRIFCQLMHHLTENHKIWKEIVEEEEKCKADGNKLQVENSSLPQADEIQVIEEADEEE

IC50 (SK-MEL3) [nM] | IC50 [1] [nM] | IC50 (HeLa) [nM] | IC50 [2] [nM] | SMILES | IC50 (IGR-37 cell line) [nM]
0.5 | 9 | 0.2 | 9 | C[C@@H]1OC(=O)NN=C1c1ccc(OC[C@@H](C)F)c(C(F)(F)F)c1 | 0.3
0.6 |  | 0.2 |  | CCCCOc1ccc(C2=NNC(=O)O[C@H]2C)cc1C(F)(F)F | 0.5
0.6 | 6 | 0.3 | 7 | CCOc1ccc(C2=NNC(=O)O[C@H]2C)cc1C(F)(F)F | 0.5
0.3 | 7 | 0.1 | 5 | C[C@@H]1OC(=O)NN=C1c1ccc(OCCC(F)(F)F)c(C(F)(F)F)c1 | 0.3
0.3 | 8 | 0.1 | 5 | CCCOc1ccc(C2=NNC(=O)O[C@H]2C)cc1C(F)(F)F | 0.3
0.3 |  | 0.1 |  | COCCOc1ccc(C2=NNC(=O)O[C@H]2C)cc1C(F)(F)F | 0.2
